These results are taken from patent US11565022B2, “Therapy for post-traumatic osteoarthritis” (University of Iowa Research Foundation, priority 2015, dated 2023).

This assay relates to complex I of the electron transport chain in chondrocytes. Kind of assay: complex I activity in the presence or absence of amobarbital (FIG. 4). In kind it is biochemical.

SMILES strings stand for the structures.

For the compound `CCC1(CCC(C)C)C(=O)NC(=O)NC1=O` [amobarbital], the “biochemical activity of complex I of the electron transport chain” value is on record as “directly inhibits”.
